Experiment [1] has as its target T1, β2 receptor (Homo sapiens, UniProt P07550).
T1 construct: endogenous in cells; host or cells: H292 cells
In words: β2 mediated cAMP production in H292 cells, AlphaScreen cAMP detection (10 minutes with test compound). The conditions noted are these: for EC50: cAMP, 10 minutes incubation with compound, 300 μM rolipram; for Intrinsic Activity: fraction relative to the maximum activity determined for formoterol, 10 minutes incubation. In kind it is cell-based. As for the experimental part:
H292 cells were grown in RPMI (Roswell Park Memorial Institute) medium containing, 10% (v/v) FBS (foetal bovine serum) and 2 mM L-glutamine. Cells were grown in 225 cm2 flasks containing 25 mL media in a humidified incubator at 37° C., 5% CO2. Cells were harvested from the flask and passaged at a 1 in 10 dilution once per week.
The media from flasks containing H292 cells was removed, rinsed with 10 mL PBS (phosphate buffered saline) and replaced with 10 mL Accutase™ cell detachment solution. Flasks were incubated for 15 minutes in a humidified incubator at 37° C., 5% CO2. The cell suspension was counted and the cells re-suspended in RPMI media (containing 10% (v/v) FBS and 2 mM L-glutamine) at 0.05×10^6 cells per mL. 5000 cells in 100 μL were added to each well of a tissue-culture-treated 96-well plate and the cells incubated overnight in a humidified incubator at 37° C., 5% CO2. The culture media was removed, washed twice with 100 μL assay buffer and replaced with 50 μL assay buffer. Cells were rested at room temperature for 20 minutes after which time 25 μL of rolipram (1.2 mM made up in assay buffer containing 2.4% (v/v) dimethylsulphoxide) was added. Cells were incubated with rolipram for 10 minutes after which time test compounds (made up as ×4 concentrated stocks in assay buffer containing 4% (v/v) dimethylsulphoxide) were added and the cells were incubated for 10 minutes at room temperature. Final rolipram concentration in the assay was 300 μM and final vehicle concentration was 1.6% (v/v) dimethylsulphoxide. The reaction was stopped by removing supernatants, washing once with 100 μL assay buffer and replacing with 50 μL lysis buffer. The cell monolayer was frozen at −80° C. for 30 minutes (or overnight).
(§1) The concentration of cAMP (cyclic adenosine monophosphate) in the cell lysate was determined using the AlphaScreen™ methodology. The frozen cell plate was thawed for 20 minutes on a plate shaker then 10 μL of the cell lysate was transferred to a 96-well white plate. 40 μL of mixed AlphaScreen™ detection beads (containing equal volumes of donor beads (pre-incubated with biotinylated cAMP in the dark for 30 minutes) and acceptor beads), was added to each well and the plate incubated at room temperature for 10 hours in the dark. The AlphaScreen™ signal was measured using an EnVision spectrophotometer (Perkin-Elmer Inc.) with the recommended manufacturer's settings. cAMP concentrations were determined by reference to a calibration curve determined in the same experiment using standard cAMP concentrations (made up in lysis buffer in a 96-well tissue-culture-treated plate and frozen/thawed alongside the test samples) and detected using the same protocol. Concentration response curves for agonists were constructed to determine both the pEC50 and Intrinsic Activity.

The target in experiment [2] is T2, recombinant human α1D receptor (Homo sapiens, UniProt P25100).
T2 construct: expressed in transfected cells; host or cells: HEK293
T2 sequence (P25100 1-572): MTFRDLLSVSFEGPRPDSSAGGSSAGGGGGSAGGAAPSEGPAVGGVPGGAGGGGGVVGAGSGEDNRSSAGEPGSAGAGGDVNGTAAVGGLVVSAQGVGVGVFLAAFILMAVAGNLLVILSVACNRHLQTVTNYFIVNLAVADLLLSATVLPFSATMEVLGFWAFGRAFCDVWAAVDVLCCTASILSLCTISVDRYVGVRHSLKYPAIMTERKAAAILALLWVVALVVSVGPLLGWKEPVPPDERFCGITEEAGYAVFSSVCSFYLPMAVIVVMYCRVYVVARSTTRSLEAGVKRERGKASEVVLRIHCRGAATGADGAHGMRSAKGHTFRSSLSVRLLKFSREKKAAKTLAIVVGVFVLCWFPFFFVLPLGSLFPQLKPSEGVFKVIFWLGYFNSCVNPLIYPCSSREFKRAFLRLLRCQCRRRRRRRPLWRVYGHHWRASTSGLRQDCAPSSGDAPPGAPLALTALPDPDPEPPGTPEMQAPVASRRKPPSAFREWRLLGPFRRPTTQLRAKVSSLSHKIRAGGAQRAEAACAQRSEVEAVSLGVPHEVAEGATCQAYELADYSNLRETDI
Briefly: Adrenergic α1D selectivity assay, [3H]-prazosin binding to HEK293 membranes. The conditions noted are these: read-out: α1 bind pIC50 (converted). As for the experimental part: Membranes were prepared from human embryonic kidney 293 (HEK293) cells expressing recombinant human α1D receptor. These were diluted in Assay Buffer (50 mM HEPES, 1 mM EDTA, 0.1% gelatin, pH 7.4) to provide a final concentration of membranes that gave a clear window between maximum and minimum specific binding.
(§2) Assays were performed in U-bottomed 96-well polypropylene plates. 10 μL [^3H]-prazosin (0.3 nM final concentration) and 10 μL of test compound (10× final concentration) were added to each test well. For each assay plate 8 replicates were obtained for [^3H]-prazosin binding in the presence of 10 μL vehicle (10% (v/v) DMSO in Assay Buffer; defining maximum binding) or 10 μL BMY7378 (10 μM final concentration; defining non-specific binding (NSB)). Membranes were then added to achieve a final volume of 100 μL. The plates were incubated for 2 hours at room temperature and then filtered onto PEI coated GF/B filter plates, pre-soaked for 1 hour in Assay Buffer, using a 96-well plate Tomtec cell harvester. Five washes with 250 μL wash buffer (50 mM HEPES, 1 mM EDTA, pH 7.4) were performed at 4° C. to remove unbound radioactivity. The plates were dried then sealed from underneath using Packard plate sealers and MicroScint-O (50 μL) was added to each well. The plates were sealed (TopSeal A) and filter-bound radioactivity was measured with a scintillation counter (TopCount, Packard BioScience) using a 3-minute counting protocol.
(§3) Total specific binding (B0) was determined by subtracting the mean NSB from the mean maximum binding. NSB values were also subtracted from values from all other wells.

For experiment [3], the target named is T3, recombinant human adrenergic beta 1 receptors (Homo sapiens, UniProt P08588).
T3 construct: purchased Euroscreen
In words: Adrenergic β1 selectivity assay, [125I]-Iodocyanopindolol binding to membranes. The conditions noted are these: inhibition of [125I]-Iodocyanopindolol binding (0.036 nM); read-out: β1 bind pIC50 (converted). As to the method: Membranes containing recombinant human adrenergic beta 1 receptors were obtained from Euroscreen. These were diluted in Assay Buffer (50 mM HEPES, 1 mM EDTA, 120 mM NaCl, 0.1% gelatin, pH 7.4) to provide a final concentration of membranes that gave a clear window between maximum and minimum specific binding.
as §2, with “[^125I]-Iodocyanopindolol (0.036” for “[^3H]-prazosin (0.3”, “[^125I]-Iodocyanopindolol” for “[^3H]-prazosin”, “Propranolol” for “BMY7378”, “EDTA, 120 mM NaCl,” for “EDTA,”
as §3

In experiment [4] the target is T4, recombinant human Dopamine Subtype D2s receptors (Homo sapiens, UniProt P14416).
T4 construct: purchased Perkin Elmer
Briefly: Dopamine D2 selectivity assay, [3H]-spiperone binding to membranes. The conditions noted are these: read-out: D2 bind pIC50 (converted). As for the experimental part: Membranes containing recombinant human Dopamine Subtype D2s receptors were obtained from Perkin Elmer. These were diluted in Assay Buffer (50 mM HEPES, […], 120 mM NaCl, 0.1% gelatin, pH 7.4) to provide a final concentration of membranes that gave a clear window between maximum and minimum specific binding.
Assays were performed in U-bottomed 96-well polypropylene plates. 30 μL [^3H]-spiperone (0.16 nM final concentration) and 30 μL of test compound (10× final concentration) were added to each test well. For each assay plate 8 replicates were obtained for [^3H]-spiperone binding in the presence of 30 μL vehicle (10% (v/v) DMSO in Assay Buffer; defining maximum binding) or 30 μL Haloperidol (10 μM final concentration; defining non-specific binding (NSB)). Membranes were then added to achieve a final volume of 300 μL. The plates were incubated for 2 hours at room temperature and then filtered onto PEI coated GF/B filter plates, pre-soaked for 1 hour in Assay Buffer, using a 96-well plate Tomtec cell harvester. Five washes with 250 μL wash buffer (50 mM HEPES, 1 mM EDTA, 120 mM NaCl, pH 7.4) were performed at 4° C. to remove unbound radioactivity. The plates were dried then sealed from underneath using Packard plate sealers and MicroScint-O (50 μL) was added to each well. The plates were sealed (TopSeal A) and filter-bound radioactivity was measured with a scintillation counter (TopCount, Packard BioScience) using a 3-minute counting protocol.
as §3

The target in experiment [5] is T1, β2 receptor. Briefly: Alternative adrenergic β2 mediated cAMP production in H292 cells (60 minutes with test compound). In kind it is cell-based. The conditions noted are these: for EC50: cAMP, 60 minutes incubation with compound, 300 μM rolipram, read-out: β2 pEC50 (converted); for β2 Int Act: fraction relative to the maximum activity determined for formoterol, 60 minutes incubation. As for the experimental part:
Alternative Adrenergic (β2 Mediated cAMP Production
H292 cells were grown in 225 cm2 flasks incubator at 37° C., 5% CO2 in RPMI medium containing, 10% (v/v) FBS (foetal bovine serum) and 2 mM L-glutamine.
Adherent H292 cells were removed from tissue culture flasks by treatment with Accutase™ cell detachment solution for 15 minutes. Flasks were incubated for 15 minutes in a humidified incubator at 37° C., 5% CO2. Detached cells were re-suspended in RPMI media (containing 10% (v/v) FBS and 2 mM L-glutamine) at 0.05×10^6 cells per mL. 5000 cells in 100 μL were added to each well of a tissue-culture-treated 96-well plate and the cells incubated overnight in a humidified incubator at 37° C., 5% CO2. The culture media was removed and cells were washed twice with 100 μL assay buffer and replaced with 50 μL assay buffer (HBSS solution containing 10 mM HEPES pH7.4 and 5 mM glucose). Cells were rested at room temperature for 20 minutes after which time 25 μL of rolipram (1.2 mM made up in assay buffer containing 2.4% (v/v) dimethylsulphoxide) was added. Cells were incubated with rolipram for 10 minutes after which time test compounds were added and the cells were incubated for 60 minutes at room temperature. The final rolipram concentration in the assay was 300 μM and final vehicle concentration was 1.6% (v/v) dimethylsulphoxide. The reaction was stopped by removing supernatants, washing once with 100 μL assay buffer and replacing with 50 μL lysis buffer. The cell monolayer was frozen at −80° C. for 30 minutes (or overnight).
as §1, with “using” for “using the”, “pre-incubated” for “(containing equal volumes of donor beads (pre-incubated”, “cAMP,” for “cAMP in the dark for 30 minutes) and acceptor beads),”, “concentrations.” for “concentrations (made up in lysis buffer in a 96-well tissue-culture-treated plate and frozen/thawed alongside the test samples) and detected using the same protocol.”, “constructed and data was fitted to a four parameter logistic equation” for “constructed”, “Activity. […]” for “Activity.”
(In general: Cyclic AMP is a second messenger, typically raised through Gs and lowered through Gi signalling.)

The structures appear in SMILES notation. Where a name gives a salt, the structure may show the parent alone. A value given as a limit tells only on which side of the number the result lay.

T3 sequence (P08588 whole entry): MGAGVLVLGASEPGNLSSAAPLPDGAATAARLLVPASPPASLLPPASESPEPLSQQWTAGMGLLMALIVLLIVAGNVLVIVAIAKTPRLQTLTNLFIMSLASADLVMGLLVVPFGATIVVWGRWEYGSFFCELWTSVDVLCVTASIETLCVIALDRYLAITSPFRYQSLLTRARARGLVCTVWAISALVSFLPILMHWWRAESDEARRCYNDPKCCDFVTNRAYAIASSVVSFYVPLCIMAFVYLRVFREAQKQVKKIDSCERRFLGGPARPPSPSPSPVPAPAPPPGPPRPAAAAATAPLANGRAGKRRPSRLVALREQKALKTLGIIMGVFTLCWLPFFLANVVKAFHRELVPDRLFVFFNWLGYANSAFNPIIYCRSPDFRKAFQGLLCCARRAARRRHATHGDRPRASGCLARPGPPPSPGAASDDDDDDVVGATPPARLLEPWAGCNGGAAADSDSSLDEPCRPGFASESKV
T1 sequence (P07550 whole entry): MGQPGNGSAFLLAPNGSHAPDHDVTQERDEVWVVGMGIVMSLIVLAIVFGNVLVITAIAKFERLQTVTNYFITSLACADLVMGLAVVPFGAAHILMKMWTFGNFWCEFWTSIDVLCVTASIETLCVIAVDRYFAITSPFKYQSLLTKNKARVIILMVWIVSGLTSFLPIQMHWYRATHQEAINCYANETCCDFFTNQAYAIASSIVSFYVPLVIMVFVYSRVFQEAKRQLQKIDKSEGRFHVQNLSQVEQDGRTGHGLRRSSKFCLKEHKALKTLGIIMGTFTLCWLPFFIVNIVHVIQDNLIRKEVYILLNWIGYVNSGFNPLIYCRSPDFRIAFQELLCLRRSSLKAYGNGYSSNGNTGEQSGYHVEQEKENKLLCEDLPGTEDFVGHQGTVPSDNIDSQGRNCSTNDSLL
T4 sequence (P14416 1-414 isoform P14416-2): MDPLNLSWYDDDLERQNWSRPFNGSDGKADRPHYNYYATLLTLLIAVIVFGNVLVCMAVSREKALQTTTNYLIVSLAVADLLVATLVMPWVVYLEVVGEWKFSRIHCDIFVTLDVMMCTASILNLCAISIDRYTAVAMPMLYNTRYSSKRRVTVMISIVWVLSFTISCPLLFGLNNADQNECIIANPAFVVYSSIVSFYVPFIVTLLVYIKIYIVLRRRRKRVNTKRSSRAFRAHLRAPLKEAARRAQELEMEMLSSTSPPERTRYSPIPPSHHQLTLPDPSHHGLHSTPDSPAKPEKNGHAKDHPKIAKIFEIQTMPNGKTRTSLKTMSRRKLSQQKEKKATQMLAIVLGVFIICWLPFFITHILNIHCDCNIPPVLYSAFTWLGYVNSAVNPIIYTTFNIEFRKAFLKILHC

Regarding `CCCCN(CCNC[C@H](O)c1ccc(OCc2ccccc2)c2[nH]c(=O)sc12)C(=O)CCOCCc1ccccc1` [Example 1, N-[2-[2-(4-Benzyloxy-2-oxo-3H-benzothiazol-7-yl)-(2R)-2-hydroxy-ethyl]aminoethyl]-N-butyl-3-phenethyloxy-propanamide], at β2 receptor [1], the EC50 is 20 nM and the “Intrinsic Activity” value is given as 0.7.

Consider `CCCCN(CCNC[C@H](O)c1ccc(O)c2[nH]c(=O)sc12)C(=O)CCOCCc1ccccc1.Cl` [Example 2, N-Butyl-N-(2-{[(2R)-2-hydroxy-2-(4-hydroxy-2-oxo-2,3-dihydro-1,3-benzothiazol-7-yl)ethyl]amino}ethyl)-3-(2-phenylethoxy)propanamide Hydrochloride], for which the IC50 in experiment [2] was 2510 nM; in experiment [3], 6.31 nM; in experiment [4], greater than 10000 nM. In addition, the EC50 on β2 receptor [5] is 1 nM. The “β2 Int Act” value at β2 receptor [5] turned out to be 0.9.

Take `O=C(CCOCCc1ccccc1)N(CCNC[C@H](O)c1ccc(O)c2[nH]c(=O)sc12)CCc1ccccc1` [Example 4, N-(2-{[(2R)-2-Hydroxy-2-(4-hydroxy-2-oxo-2,3-dihydro-1,3-benzothiazol-7-yl)ethyl]amino}ethyl)-3-(2-phenylethoxy)-N-(2-phenylethyl)propanamide]: at β2 receptor [1], the EC50 is 1.26 nM and the “Intrinsic Activity” value stood at 1.1. Besides, in experiment [3], the IC50 was 3.16 nM. Besides, at β2 receptor [5], the EC50 was 1.26 nM and the “β2 Int Act” value is recorded as 0.9.

On to `CN(CCNC[C@H](O)c1ccc(O)c2[nH]c(=O)sc12)C(=O)CCOCCc1ccccc1` [Example 5, N-(2-{[(2R)-2-Hydroxy-2-(4-hydroxy-2-oxo-2,3-dihydro-1,3-benzothiazol-7-yl)ethyl]amino}ethyl)-N-methyl-3-(2-phenylethoxy)propanamide Trifluoroacetate], for which, at β2 receptor [1], the EC50 was 0.316 nM and the “Intrinsic Activity” value amounted to 1.0. Besides, the IC50 in experiment [3] is 12.6 nM. Moreover, on β2 receptor [5], the EC50 is 0.2 nM and the “β2 Int Act” value came out at 1.

The values above are taken from patent publication US20090203753A1, “7-(2-amino-1-hydroxy-ethyl)-4-hydroxybenzothiazol-2(3H)-one-derivatives as beta2 adrenoreceptor agonists” (AstraZeneca AB, priority 2005, published 2009).
